Experiment [1] has as its system expression of SEQ ID NO:35 in human peripheral blood mononuclear cells (PBMCs). Put plainly: Microarray expression of SEQ ID NO:35 in prednisone-treated PBMCs. It counts as cell-based. The settings on record: PBMCs pooled from 6 healthy donors, 5 and 25 μM, 24 hours, compared to untreated controls. An excerpt: (§1) Full length cDNAs, Expressed Sequence Tags (ESTs), or fragments or oligomers thereof may comprise the elements of the microarray. Fragments or oligomers suitable for hybridization can be selected using software well known in the art such as LASERGENE software (DNASTAR). The array elements are hybridized with polynucleotides in a biological sample. The polynucleotides in the biological sample are conjugated to a fluorescent label or other molecular tag for ease of detection. After hybridization, nonhybridized nucleotides from the biological sample are removed, and a fluorescence scanner is used to detect hybridization at each array element. Alternatively, laser desorbtion and mass spectrometry may be used for detection of hybridization. The degree of complementarity and the relative abundance of each polynucleotide which hybridizes to an element on the microarray may be assessed. In one embodiment, microarray preparation and usage is described in detail below.
(§2) Total RNA is isolated from tissue samples using the guanidinium thiocyanate method and poly(A)^+ RNA is purified using the oligo-(dT) cellulose method. […]
(§3) Sequences of the present invention are used to generate array elements. […] Array elements are amplified in thirty cycles of PCR from an initial quantity of 1-2 ng to a final quantity greater than 5 μg. […]

The subject of experiment [2] is expression of SEQ ID NO:33 in human C3A liver cell line. Put plainly: Microarray expression of SEQ ID NO:33 in compound-treated C3A liver cells. Format: cell-based. Particulars: human C3A liver cell line incubated for varying lengths of time with compound.
Description: The array elements are hybridized with polynucleotides in a biological sample. The polynucleotides in the biological sample are conjugated to a fluorescent label or other molecular tag for ease of detection. After hybridization, nonhybridized nucleotides from the biological sample are removed, and a fluorescence scanner is used to detect hybridization at each array element. […] The degree of complementarity and the relative abundance of each polynucleotide which hybridizes to an element on the microarray may be assessed.
Total RNA is isolated from tissue samples using the guanidinium thiocyanate method and poly(A)^+ RNA is purified using the oligo-(dT) cellulose method. Each poly(A)^+ RNA sample is reverse transcribed using MMLV reverse-transcriptase, 0.05 pg/μl oligo-(dT) primer (21 mer), 1× first strand buffer, 0.03 units/μl RNase inhibitor, 500 μM dATP, 500 μM dGTP, 500 μM dTTP, 40 μM dCTP, 40 μM dCTP-Cy3 (BDS) or dCTP-Cy5 (Amersham Biosciences). The reverse transcription reaction is performed in a 25 ml volume containing 200 ng poly(A)^+ RNA with GEMBRIGHT kits (Incyte). Specific control poly(A)^+ RNAs are synthesized by in vitro transcription from non-coding yeast genomic DNA. […]
The conditions of experiment [3]: intranasal; greater than those produced by hydrocortisone; cited from earlier work.
For experiment [4] the following is noted: greater than progesterone; cited from earlier work.
The subject of experiment [5] is expression of SEQ ID NO:44 in peripheral blood mononuclear cells. The experiment can be described thus: Microarray expression of SEQ ID NO:44 in IL12-treated PBMCs. It counts as cell-based, human. Particulars: PBMCs from a pool of healthy donors, 1 ng/ml, 24 hours.
Description: as §1, §2, §3

Turning to `C[C@]12C=CC(=O)C=C1CC[C@@H]1[C@@H]2C(=O)C[C@@]2(C)[C@H]1CC[C@]2(O)C(=O)CO` [prednisone], in experiment [1], the “expression of SEQ ID NO:35” value is “decreased by at least two-fold”. Regarding `C[C@H]1C[C@H]2[C@@H]3CCC4=CC(=O)C=C[C@]4(C)[C@@]3(Cl)[C@@H](O)C[C@]2(C)[C@@]1(O)C(=O)CO` [beclomethasone], the “expression of SEQ ID NO:33” value in experiment [2] is recorded as “reduced by at least two fold”. Moreover, the “anti-inflammatory and vasoconstrictive effects relative to hydrocortisone” value in experiment [3] is on record as 5000 times. Turning to “6α-methyl-17-hydroxyprogesterone [medroxyprogesterone]”, the “pharmacological activity relative to progesterone” value in experiment [4] is “about 15 times”. Also, the “expression of SEQ ID NO:33” value in experiment [2] was “reduced by at least two fold”.

B1: IL12: pleiotropic cytokine produced by macrophages and B lymphocytes (protein, UniProt P29459 23-219; P29460 23-328, looked up)
Interleukin-12 subunit alpha: RNLPVATPDPGMFPCLHHSQNLLRAVSNMLQKARQTLEFYPCTSEEIDHEDITKDKTSTVEACLPLELTKNESCLNSRETSFITNGSCLASRKTSFMMALCLSSIYEDLKMYQVEFKTMNAKLLMDPKRQIFLDQNMLAVIDELMQALNFNSETVPQKSSLEEPDFYKTKIKLCILLHAFRIRAVTIDRVMSYLNAS
Interleukin-12 subunit beta: IWELKKDVYVVELDWYPDAPGEMVVLTCDTPEEDGITWTLDQSSEVLGSGKTLTIQVKEFGDAGQYTCHKGGEVLSHSLLLLHKKEDGIWSTDILKDQKEPKNKTFLRCEAKNYSGRFTCWWLTTISTDLTFSVKSSRGSSDPQGVTCGAATLSAERVRGDNKEYEYSVECQEDSACPAAEESLPIEVMVDAVHKLKYENYTSSFFIRDIIKPDPPKNLQLKPLKNSRQVEVSWEYPDTWSTPHSYFSLTFCVQVQGKSKREKKDRVFTDKTSATVICRKNASISVRAQDRYYSSSWSEWASVPCS
As to B1, the “expression of SEQ ID NO:44” value in experiment [5] is reported as “decreased by at least two-fold”.

Values taken from US20050069877A1, “Protein modification and maintenance molecules” (priority 2001, published 2005).
